Laboratory results taken from patent publication US6538008B1, “Combination of a selective NMDA NR2B antagonist and an opioid analgesic” (Merck Sharpe & Dohme Limited, priority 1998, dated 2003).
Values joined by “and” are separate entries in the source; they are usually repeats but may differ in a detail not shown here. Identical values can stand only once.

Legend:
[1] = tested on: mechanical allodynia induced by sciatic nerve ligation; assay: Sciatic nerve ligation assay of neuropathic pain (mechanical allodynia, modified Randall-Selitto algesiometer); format: in vivo, rat; details: for effect on mechanical allodynia induced by sciatic nerve ligation: in words, Example 5; for ID50 Antinociception Rat Ligation: reversal of mechanical allodynia 7 days after ligation, compound given 1 h before test, route given per compound
[2] = tested on: mechanical hyperalgesia induced by carrageenan; assay: Carrageenan-induced mechanical hyperalgesia assay (modified Ugo Basile Algesiometer); format: in vivo, rat; details: for ID50 Antinociception Rat Carrageenan: inhibition of mechanical hyperalgesia 3 h after carrageenan 4.5 mg i.pl., compound given 2 h after carrageenan, route given per compound
Experimental: (§1) Anti-algesic activity was assessed using an assay of neuropathic pain in rats (sciatic nerve ligation) and in a carrageenan-induced hyperalgesia assay. Motor impairment was measured using an accelerating rotarod.
(§2) For sciatic nerve ligation, male Sprague Dawley rats (180-220 g) were anaesthetised with isofluorane, the left sciatic nerve exposed and 4 chromic catgut (4.0) ligatures were tied loosely around the nerve (spaced 1-2 mm apart) immediately proximal to the point of trifurcation. In sham-operated animals, the same dissection was performed but without ligation. Responses to mechanical pressure were assessed 7 days after ligation using a modified Randall-Selitto algesiometer in which constant force of 40 mmHg was applied to the hind paw and the latency to struggle was recorded as the reaction time. Mechanical allodynia was defined as the difference in reaction time for sham and ligature rats. Reaction times for drug treated rats were expressed as a percentage of this response. Compounds were administered 1 h before the test. In the carrageenan-induced hyperalgesia assay, male Sprague Dawley rats (100-120 g) received an intraplantar injection of carrageenan (4.5 mg) and mechanical thresholds were determined 3 h later using a modified Ugo Basile Algesiometer. Control rats received saline (0.15 ml i.pl.). Hyperalgesia was defined as the difference in vocalisation threshold for saline- and carrageenan-injected rats. Paw pressure scores for drug-treated rats were expressed as a percentage of this response. Compounds were administered 2 h after carrageenan. To determine the effects of the compounds on motor co-ordination, male Sprague Dawley rats (160-180 g) were first trained to remain for 120 s on the rotarod apparatus revolving at 12 r.p.m. on the morning before the test. […] Lamotrigine, gabapentin and (±)-CP-101,606 were suspended in 0.5% methocel and administered orally (1 ml/kg). Ifenprodil, L-701.324, L-687,414 and (±)-Ro25-6981 were dissolved or suspended in 0.5% methocel and administered intraperitoneally (1 ml/kg). MK-801 was dissolved in distilled water and given i.p. (1 ml/kg). Doses of compounds refer to the free base.
(§3) Male Sprague Dawley rats (100-120 g) received an intraplantar injection of carrageenan (4.5 mg) and mechanical thresholds were determined 3 h later using a modified Ugo Basile Algesiometer. Control rats received saline (0.15 ml i.pl.). Hyperalgesia was defined as the difference in vocalisation threshold for saline- and carrageenan-injected rats. Paw pressure scores for drug-treated rats were expressed as a percentage of this response. Compounds were administered 2 h after carrageenan. To determine the effects of morphine and (±)-Ro25-6981 on motor co-ordination, male Sprague Dawley rats (160-180 g) were first trained to remain for 120 s on the rotarod apparatus revolving at 12 r.p.m. on the morning before the test.
(§4) (±)-Ro25-6981 was suspended in 0.5% methocel and administered intraperitoneally (1 ml/kg). Morphine HCl was dissolved in saline and given subcutaneously (1 ml/kg). Doses of compounds refer to the free base.

[3] = tested on: rotarod performance (motor co-ordination); assay: Motor co-ordination and behaviour, accelerating rotarod; details: for ID50 Motor Impairment Rat Rotarod: accelerating rotarod 1 h after drug, route given per compound
Experimental: as §1, §2, §3, §4

[4] = tested on: rat hyperalgesic and nociceptive tests; details: at doses showing no behavioural abnormality; cited from earlier work

| Compound | effect on mechanical allodynia induced by sciatic nerve ligation [1] | ID50 Antinociception Rat Ligation [1] [mg/kg] | ID50 Antinociception Rat Carrageenan [2] [mg/kg] | ID50 Motor Impairment Rat Rotarod [3] | further results |
| --- | --- | --- | --- | --- | --- |
| C[C@@H](CN1CCC(Cc2ccccc2)CC1)[C@@H](O)c1ccc(O)cc1 (racemic) [(±)-Ro25-6981] | dose-dependently reversed mechanical allodynia | 3.8 | 5.7 | ≧100 mg/kg | antinociception in carrageenan-induced hyperalgesia ([2]; 1 mg/kg i.p., alone): did not cause significant antinociception; effect on mechanical hyperalgesia induced by carrageenan ([2]; 10 and 30 mg/kg i.p., alone (FIG. 1)): dose-dependent reversal of mechanical hyperalgesia; effect on rotarod performance ([3]; 1 mg/kg i.p. alone (FIG. 3)): no effect; inhibition of rotarod performance ([3]; 100 mg/kg i.p.): 47% |
| C[C@@H]([C@@H](O)c1ccc(O)cc1)N1CCC(O)(c2ccccc2)CC1 [CP-101,606] | – | – | – | – | analgesic activity [4]: Potent analgesic activity |
| NCC1(CC(=O)O)CCCCC1 [Gabapentin, gabapentin] | reversed mechanical allodynia | 87 | 50 | 133 mg/kg | behavioural effects observed ([3]; doses of 30-300 mg/kg): motor impairments (ataxia) |
| CC(C(O)c1ccc(O)cc1)N1CCC(Cc2ccccc2)CC1 (centres unmarked) [Ifenprodil, ifenprodil] | reversed mechanical allodynia | 9.5 | 17 | ≧50 mg/kg | adverse effects observed (ptosis, piloerection, hypoactivity, hyperventilation) ([3]; 50 mg/kg): severe adverse effects; impairment in rotarod performance ([3]; 50 mg/kg): approximately 50% |
| C[C@@H]1CN(O)C(=O)[C@@H]1N [L-687,414] | dose-dependently reversed mechanical allodynia | 9.8 | 50 | 53.3 mg/kg and 53 mg/kg | behavioural effects observed ([3]; 100 and 300 mg/kg i.p.): body rolling and ataxia |
| O=c1[nH]c2cc(Cl)ccc2c(O)c1-c1cccc(Oc2ccccc2)c1 [L-701,324] | dose-dependently reversed mechanical allodynia | 2.6 | 2.5 | 1.9 mg/kg | behavioural effects observed ([3]; 10 and 30 mg/kg i.p.): ataxia was evident |
| Nc1nnc(-c2cccc(Cl)c2Cl)c(N)n1 [Lamotrigine, lamotrigine] | reversed mechanical allodynia | 11 | 207 | >500 mg/kg | inhibition in the time spent on the rotarod ([3]; 500 mg/kg p.o.): 40%; other effects observed besides rotarod inhibition ([3]; 500 mg/kg p.o.): no other effects were observed |
| C[C@]12N[C@H](Cc3ccccc31)c1ccccc12 [MK-801] | dose-dependently reversed mechanical allodynia | 0.19 | 0.21 | 0.22 mg/kg | behavioural effects observed ([3]; 0.3 and 1 mg/kg doses): Body rolling. and head weaving |
| CN1CC[C@]23c4c5ccc(O)c4O[C@H]2[C@@H](O)C=C[C@H]3[C@H]1C5 [morphine] | – | – | – | – | effect on mechanical hyperalgesia induced by carrageenan ([2]; 1 mg/kg s.c., alone (FIG. 2)): completely reversed mechanical hyperalgesia; effect on mechanical hyperalgesia induced by carrageenan ([2]; 0.1 and 0.3 mg/kg s.c., alone (FIG. 2)): without effect; percent inhibition of hyperalgesia ([2]; morphine 0.1 mg/kg s.c. alone): 11%; percent inhibition of hyperalgesia ([2]; morphine 0.3 mg/kg s.c. alone): 31%; effect on rotarod performance ([3]; 3 mg/kg s.c. alone (FIG. 3)): significant impairment; effect on rotarod performance ([3]; 0.3 and 1 mg/kg s.c. alone (FIG. 3)): no effect |
| (±)-CP-101,606 | dose-dependently reversed mechanical allodynia | 6.1 | 37 | >300 mg/kg | rotarod latency compared to vehicle-treated rats ([3]; 300 mg/kg dose): significant increase in latency; effect on motor performance on the rotarod ([3]; up to 300 mg/kg p.o.): did not inhibit motor performance |
